In ChEMBL document CHEMBL1201862, “PubChem BioAssay data set” (2004):
Active and inactive are the calls of the source. Cut-off read from the data, not from the text of the source: actives have a measured IC50 and inactives only a lower limit.

Target: Envelope glycoprotein gp160 (Human immunodeficiency virus 1, UniProt Q6QLK5)
Assay: inhibitors of HIV fusion peptide binding, primary screen, biochemical, uHTS, fluorescence dequenching (AID 1986)

Sequence of Envelope glycoprotein gp160 (Q6QLK5 whole entry, the tested form may be a part): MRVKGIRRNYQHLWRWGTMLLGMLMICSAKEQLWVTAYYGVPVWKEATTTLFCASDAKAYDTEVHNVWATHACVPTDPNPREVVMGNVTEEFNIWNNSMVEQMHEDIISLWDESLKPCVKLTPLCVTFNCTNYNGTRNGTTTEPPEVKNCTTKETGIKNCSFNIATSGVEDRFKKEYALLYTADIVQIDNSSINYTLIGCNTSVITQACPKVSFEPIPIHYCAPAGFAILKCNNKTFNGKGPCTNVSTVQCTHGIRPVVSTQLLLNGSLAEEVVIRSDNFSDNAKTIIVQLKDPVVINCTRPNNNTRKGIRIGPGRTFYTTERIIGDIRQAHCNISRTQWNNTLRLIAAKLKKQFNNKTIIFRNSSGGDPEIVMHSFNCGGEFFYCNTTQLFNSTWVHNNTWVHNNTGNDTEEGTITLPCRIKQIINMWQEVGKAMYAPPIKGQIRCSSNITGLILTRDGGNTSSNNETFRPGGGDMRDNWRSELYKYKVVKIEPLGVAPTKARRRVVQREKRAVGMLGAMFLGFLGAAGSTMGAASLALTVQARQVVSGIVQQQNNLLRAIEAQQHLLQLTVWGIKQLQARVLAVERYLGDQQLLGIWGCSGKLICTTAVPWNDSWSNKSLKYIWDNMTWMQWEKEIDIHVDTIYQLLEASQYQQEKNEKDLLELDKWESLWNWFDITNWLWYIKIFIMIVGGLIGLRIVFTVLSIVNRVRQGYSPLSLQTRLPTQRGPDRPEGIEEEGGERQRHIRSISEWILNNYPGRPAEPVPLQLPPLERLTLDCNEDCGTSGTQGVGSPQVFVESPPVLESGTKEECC

COc1cc(/C=C2\SC(NS(=O)(=O)c3ccc(C)cc3)=NC2=O)c([N+](=O)[O-])cc1OC
IC50: 17.1 µM (active)

O=C(O)CCn1cc(/C=C/C(=O)c2ccc(Cl)cc2)c(-c2cccc(Br)c2)n1
IC50: 28 µM (active)
